{
  "source": "patent US20120114596A1",
  "about": "“TSLP PROMOTES IMMUNE EVASION AND PERSISTENCE OF VIRUSES” (priority 2009, published 2012)",
  "key": {"[1]": {"test_system": "TSLP expression", "conditions": "cited from earlier work"}, "[2]": {"test_system": "DCs", "assay": "DC polarization / cytoskeleton architecture by epifluorescence microscopy", "assay_type": "cell-based, human"}, "[3]": {"test_system": "DCs", "assay": "DC motility in micro-channel system (confined environment)", "assay_type": "cell-based, human", "source_text": "A tissue represents a confined environment for cell migration (Irimia et al., Lab Chip, 2007, 7, 1783-1790). Cells may be “trapped” in narrow spaces, being forced to pass through areas of diverse densities. In order to mimic such in vivo situation, a micro-channel system was used. This system allows quantifying diverse parameters to define the cell movement and to restrain the direction of the mobile cells.\nThe microfluidic device was fabricated in PDMS (Whitesides G. M., E., O., Takayama S., X., J. & E, I. D. Ann Rev Biomed Eng, 2001 3, 335). The PDMS piece, with embedded microchannels and holes for the inlet and outlet ports, and a glass Iwaki chamber (Milian) were activated in a plasma cleaner (PDC-32G Harrick) and bonded to each other. The chambers were left under strong vacuum for 5 min in the plasma cleaner and plasma was turned on to render the top surface of the PDMS and the inlet and outlet holes hydrophilic. Fibronectin solution at 50 μg/ml was placed on top of the inlet and outlet ports. The solution spontaneously invaded the channels and all air bubbles were resorbed into the PDMS due to the previous vacuum treatment. Fibronectin was incubated for 1 h at room temperature, then washed with PBS then replaced by cell culture medium. The cells were concentrated and micropipette tips containing the cells were inserted in the inlet port. Cells fell inside the port, bound to the bottom coverslip and started migrating. They entered the channels spontaneously, without any mechanical or chemical stimulation.\nPhase contrast […], using an automated microscope (Nikon ECLIPSE TE1000-E, and Olympus X71, with a Marzhauser motorized stage and an HQ2 Roper camera) equipped with an environmental chamber for temperature, humidity and CO2 (Life Imaging Services). Cells remained alive and motile during the entire period of recording.\nTo analyse the importance of myosin II in DCs migration, cells were pre-treated with […] blebbistatin and then concentrated and inserted in the microchannels."}, "[4]": {"test_system": "CD11c+ DCs", "assay_type": "cell-based, human"}, "[5]": {"test_system": "naive CD4+ T cells", "assay": "Priming of naive CD4+ T cells by activated DCs, T cell cytokine profile", "assay_type": "cell-based, human", "conditions": "DC:T 1:5, 5-6 days, re-stimulation", "protocol": "After 24 h of culture, stimulated CD11c^+ DCs were collected, washed, and co-cultured with allogenic naïve CD4^+ T cells in round-bottomed plates 96-well culture plates (Falcon) at a 1:5 DC: T cell ratio in Yssel's medium (kind gift of Hans Yssel) containing 10% FCS (Hyclone). Peripheral blood naïve CD4^+ T cells were isolated by using CD4 T cell isolation kit II (Miltenyi Biotec) followed by staining for CD45RO-FITC, CD45RA-PE, CD4-APC, and cell sorting of CD45RA^+, CD4^+, CD45RO^− cells (purity>99%) with a FACSAria (BD Bioscience). Standard Th subsets were generated in presence of Dynabeads CD3/CD28 T cell expander (1 bead per cell) (Invitrogen) and 10 ng/ml IL-12 (R&D Systems) for Th1, 25 ng/ml IL-4 (R&D Systems) for Th2 and in absence of any polarizing cytokine for Th0.\nAfter 5-6 days, cells were harvested, extensively washed and viability was determined by trypan blue exclusion. […] Cytokines in culture supernatants were measured by cytometric bead assay (CBA) Flex Sets (BD Bioscience) according to the manufacturer's instruction. IFN-γ-, IL-4-, IL-10-, TNF-producing cells were analysed by intracellular cytokine staining after addition of 10 μg/ml Brefeldin during the last 3 h of re-stimulation. […] Cells were stained with anti-IFN-γ FITC, anti-IL-4 PE, anti-IL-10 PE, anti-TNF PE (BD Pharmingen) washed and then analysed by flow cytometry (FACScan Becton Dickinson)."}, "[6]": {"test_system": "DCs", "assay": "DC activation by surface expression of CD40, CD80, CD86, OX40L"}, "[7]": {"test_system": "Langerhans cells (LC)", "assay": "Epidermal explant model of LC emigration", "assay_type": "cell-based, human", "conditions": "FIGS. 2B and C", "source_text": "Next, epidermal explants were used as a global model to study the emigration of LC."}},
  "note": "“Also recorded” adds a separate entry of the source.",
  "data": [
    {"compound": "CC1=C(/C=C/C(C)=C\\C=C\\C(C)=C\\C(=O)O)C(C)(C)CCC1", "note": "[9-cis-retinoic acid]", "values": [
      {"measurement": "regulation of TSLP expression", "setting": "[1]", "value": "negative regulators of TSLP expression"}
    ]},
    {"compound": "Cc1ccc2c(c1)C(=O)C1(O)CCN(c3ccccc3)C1=N2", "note": "(centres unmarked) [blebbistatin, reference compound]", "values": [
      {"measurement": "morphology of TSLP-DCs under myosin II inhibition", "setting": "[2]; TSLP with 20 nM blebbistatin, 12 h", "value": "extremely elongated cellular shape"},
      {"measurement": "effect on TSLP-induced DC entry into micro-channels", "setting": "[3]; blebbistatin 50 nM pre-culture", "value": "significantly inhibited"},
      {"measurement": "blebbistatin dose inhibiting TSLP-induced DC migration", "setting": "[4]", "value": 20, "unit": "nM"}
    ]},
    {"compound": "c1ccc2ncncc2c1", "note": "[quinazoline]", "values": [
      {"measurement": "regulation of TSLP expression", "setting": "[1]", "value": "negative regulators of TSLP expression"}
    ]},
    {"compound": "TSLP: cytokine of the IL-7 family produced by epithelial cells; recombinant from R&D Systems", "values": [
      {"measurement": "DC polarization (actin cytoskeleton morphology)", "setting": "[2]", "value": "extremely polarized"},
      {"measurement": "T cell cytokine profile induced by activated DC", "setting": "[5]", "value": "Th2 profile"},
      {"measurement": "DC activation based on surface CD40, CD80 and CD86", "setting": "[6]; 24 h of culture", "value": "strong up-regulation"},
      {"measurement": "surface OX40-ligand (OX40L) expression on DC", "setting": "[6]; 48 h of culture", "value": "up-regulation"},
      {"measurement": "increase in capacity of DCs to enter micro-channels vs control medium", "setting": "[3]; 3 h time-lapse, n=3", "value": 4, "unit": "fold"},
      {"measurement": "median velocity of DC in micro-channels vs medium", "setting": "[3]; DC pre-cultured in medium or TSLP", "value": "no significant difference"},
      {"measurement": "DC migration in transwell", "setting": "[4]", "value": "highly efficient for migration"},
      {"measurement": "time after TSLP exposure at which migration started", "setting": "[4]", "value": 3, "unit": "h"},
      {"measurement": "migration of CD1a+ Langerin+ TSLP-receptor+ CD80+ cells from epidermal explants", "setting": "[7]", "value": "significantly increased; also recorded: more efficient than TNFa"}
    ]}
  ]
}
